Experimental findings from patent US4126616A, “N-propylnorapomorphine diesters” (Hinshaw; William B., priority 1976, dated 1978) are described below.

Like-named read-outs stand apart in the source and are kept apart here.

The experiment deals with caudate lesioned mouse. Briefly: caudate lesioned mouse test (anti-parkinson activity). The class given is in vivo. The note with it: for responders at 416 µmol/kg / responders at 208 µmol/kg / responders at 26 µmol/kg / responders at 94 µmol/kg / responders at 52 µmol/kg / responders at 104 µmol/kg / responders at 132 µmol/kg: Mus musculus; for responders at 94 µmol/kg: dose 0.094 m. mole/kg; for Molar Potency Ratio Claimed/Ref. Ester: claimed N-propyl ester vs corresponding N-methyl reference ester; for responders at 132 µmol/kg: dose 0.132 m. mole/kg. Here is the method:
An index of anti-parkinson activity was determined using the caudate lesioned mouse test described by Lotti, Life Sci., 10, 781-789 (1971). The mice having unilateral lesions of the caudate nucleus prepared according to the method of Lotti supra were observed immediately after the surgical procedure for strong postural asymmetries directed to the same side as the lesion. When this asymmetry was not observed, the mice were discarded. Operated mice were allowed at least 14 days to recover prior to drug testing. The lesioned mice were tested with apomorphine using 1.7 mg./kg. of base administered intraperitoneally in a 1% suspension in gum tragacanth. […] Only those mice which twisted or circled toward the lesioned side in all three test periods after the apomorphine injection were retained for further drug testing. The test drugs were all administered in 1% gum tragacanth suspension in a volume of 0.1 ml./10 g. of body weight. Doses were expressed in mg./kg. of free base.
Results of tests in the caudate lesioned mouse test described above which were obtained on the compounds of the invention are given in the table below identified, in each case, by the example numbers above where their preparations are described. Corresponding data for reference apomorphine diesters described in German patent application No. 2,154,162 are given in a side-by-side relationship for a number of the species. The reference compounds, designated Ref. 1, Ref. 1B, Ref. 1C, Ref. 1D, Ref. 1E, Ref. 1F, Ref. 2 and Ref. 2A correspond, respectively, to the compounds of the invention identified by Examples 1, 1B, 1C, 1D, 1E, 1F, 2 and 2A and differ from the latter only in having a methyl group on the apomorphine nitrogen from instead of an n-propyl group as present in the instant compounds.

Where [1] appears, read: 0.5 h, dose 0.416 m. mole/kg, 1/2 h post-drug, read-out: No. Mice Affected/No. Mice Tested, 1/2 h (converted).
Where [2] appears, read: dose 0.416 m. mole/kg, 1 h post-drug, read-out: No. Mice Affected/No. Mice Tested, 1 h (converted).
Setting [3] is: dose 0.416 m. mole/kg, 4 h post-drug, read-out: No. Mice Affected/No. Mice Tested, 4 h (converted).
The mark [4] stands for this setting: dose 0.416 m. mole/kg, 6 h post-drug, read-out: No. Mice Affected/No. Mice Tested, 6 h (converted).
[5] abbreviates: dose 0.416 m. mole/kg, 24 h post-drug, read-out: No. Mice Affected/No. Mice Tested, 24 h.
Setting [6] is: dose 0.416 m. mole/kg, total, read-out: No. Mice Affected/No. Mice Tested, Total (converted).
Where [7] appears, read: 0.5 h, dose 0.208 m. mole/kg, 1/2 h post-drug, read-out: No. Mice Affected/No. Mice Tested, 1/2 h (converted).
The mark [8] stands for this setting: dose 0.208 m. mole/kg, 1 h post-drug, read-out: No. Mice Affected/No. Mice Tested, 1 h.
The mark [9] stands for this setting: dose 0.208 m. mole/kg, 4 h post-drug, read-out: No. Mice Affected/No. Mice Tested, 4 h (converted).
Where [10] appears, read: dose 0.208 m. mole/kg, 6 h post-drug, read-out: No. Mice Affected/No. Mice Tested, 6 h (converted).
The mark [11] stands for this setting: dose 0.208 m. mole/kg, 24 h post-drug, read-out: No. Mice Affected/No. Mice Tested, 24 h (converted).
Setting [12] is: dose 0.208 m. mole/kg, total, read-out: No. Mice Affected/No. Mice Tested, Total (converted).
Where [13] appears, read: 0.5 h, 1/2 h post-drug, read-out: No. Mice Affected/No. Mice Tested, 1/2 h (converted).
Setting [14] is: 1 h post-drug, read-out: No. Mice Affected/No. Mice Tested, 1 h (converted).
[15] abbreviates: 4 h post-drug, read-out: No. Mice Affected/No. Mice Tested, 4 h (converted).
Setting [16] is: 6 h post-drug, read-out: No. Mice Affected/No. Mice Tested, 6 h (converted).
[17] abbreviates: 24 h post-drug, read-out: No. Mice Affected/No. Mice Tested, 24 h (converted).
Setting [18] is: total, read-out: No. Mice Affected/No. Mice Tested, Total (converted).
Where [19] appears, read: 0.5 h, read-out: No. Mice Affected/No. Mice Tested, 1/2 h.
Setting [20] is: 1 h, read-out: No. Mice Affected/No. Mice Tested, 1 h.
Where [21] appears, read: 4 h, read-out: No. Mice Affected/No. Mice Tested, 4 h.
Setting [22] is: 6 h, read-out: No. Mice Affected/No. Mice Tested, 6 h.
The mark [23] stands for this setting: 24 h, read-out: No. Mice Affected/No. Mice Tested, 24 h.
[24] abbreviates: read-out: No. Mice Affected/No. Mice Tested, Total.

As to `CN1CCc2cccc3c2C1Cc1ccc(OC(=O)c2ccccc2)c(OC(=O)c2ccccc2)c1-3` (centres unmarked) [Ref. 1E, reference compound], the responders at 416 µmol/kg under setting [1] was 0%; the responders at 416 µmol/kg under setting [2] is 0%; the responders at 416 µmol/kg under setting [3] was 0%; the responders at 416 µmol/kg under setting [4] was 0%; the responders at 416 µmol/kg under setting [5] worked out at 0%; the responders at 416 µmol/kg under setting [6] was 0%.
With `CCCCC(=O)Oc1ccc2c(c1OC(=O)CCCC)-c1cccc3c1C(C2)N(C)CC3` (centres unmarked) [Ref. 2A, reference compound], the responders at 208 µmol/kg is, setting by setting: under setting [7], 0%; under setting [8], 0%; under setting [9], 0%; under setting [10], 0%; under setting [11], 0%; under setting [12], 0%. Moreover, the responders at 416 µmol/kg is 33.3% under setting [1]; 0% under setting [2]; 0% under setting [3]; 0% under setting [4]; 0% under setting [5]; 33.3% under setting [6].
Turning to `CCCN1CCc2cccc3c2C1Cc1ccc(OC(=O)c2ccc(C)cc2)c(OC(=O)c2ccc(C)cc2)c1-3` (centres unmarked) [Ex. 1H, N-Propylnorapomorphine bis-4-methylbenzoate], under “ED50, caudate lesioned mouse, read-out: ED50”, the ED50 stood at 70 µmol/kg. Besides, the responders at 26 µmol/kg was 0% (0.5 h, dose 0.026 m. mole/kg, 1/2 h post-drug, read-out: No. Mice Affected/No. Mice Tested, 1/2 h (converted)); 0% (dose 0.026 m. mole/kg, 1 h post-drug, read-out: No. Mice Affected/No. Mice Tested, 1 h (converted)); 0% (dose 0.026 m. mole/kg, 2 h post-drug, read-out: No. Mice Affected/No. Mice Tested, 2 h (converted)); 0% (dose 0.026 m. mole/kg, 4 h post-drug, read-out: No. Mice Affected/No. Mice Tested, 4 h (converted)); 0% (dose 0.026 m. mole/kg, 6 h post-drug, read-out: No. Mice Affected/No. Mice Tested, 6 h (converted)); 0% (dose 0.026 m. mole/kg, 24 h post-drug, read-out: No. Mice Affected/No. Mice Tested, 24 h). The responders at 26 µmol/kg (dose 0.026 m. mole/kg, total, read-out: No. Mice Affected/No. Mice Tested, Total (converted)) is 0%. Moreover, the responders at 94 µmol/kg under setting [13] is 100%; the responders at 94 µmol/kg under setting [14] was 75%; the responders at 94 µmol/kg (2 h post-drug, read-out: No. Mice Affected/No. Mice Tested, 2 h (converted)) was 75%; the responders at 94 µmol/kg under setting [15] is 75%; the responders at 94 µmol/kg under setting [16] is 75%; the responders at 94 µmol/kg under setting [17] was 75%. Further, the responders at 94 µmol/kg under setting [18] was 100%.
On to `CN1CCc2cccc3c2C1Cc1ccc(OC(=O)C(C)(C)C)c(OC(=O)C(C)(C)C)c1-3` (centres unmarked) [Ref. 1C, reference compound], for which the responders at 208 µmol/kg is 0% under setting [7]; 0% under setting [8]; 0% under setting [9]; 0% under setting [10]; 0% under setting [11]; 0% under setting [12]. For the same compound, the responders at 416 µmol/kg by setting is: under setting [1], 0%; under setting [2], 33.3%; under setting [3], 66.7%; under setting [4], 66.7%; under setting [5], 0%; under setting [6], 66.7%.
For the compound `CC(=O)Oc1ccc2c(c1OC(C)=O)-c1cccc3c1C(C2)N(C)CC3` (centres unmarked) [Ref. 2, reference compound], the responders at 208 µmol/kg runs as follows: under setting [19], 0%; under setting [20], 0%; under setting [21], 0%; under setting [22], 0%; under setting [23], 25%; under setting [24], 25%. Besides, the responders at 416 µmol/kg was 25% under setting [19]; 50% under setting [20]; 75% under setting [21]; 75% under setting [22]; 25% under setting [23]; 75% under setting [24].
In the case of `CCCN1CCc2cccc3c2C1Cc1ccc(OC(C)=O)c(OC(C)=O)c1-3` (centres unmarked) [Ex. 2, N-propylnorapomorphine diacetate], the “Molar Potency Ratio Claimed/Ref. Ester” value is recorded as ≥ 16. Also, under setting [19], the responders at 26 µmol/kg was 100%, the responders at 52 µmol/kg was 25% and the responders at 104 µmol/kg is 50%. For the same compound, under setting [20], the responders at 26 µmol/kg is 100%, the responders at 52 µmol/kg was 25% and the responders at 104 µmol/kg is 75%. Further, under setting [21], the responders at 26 µmol/kg is 50%, the responders at 52 µmol/kg is 25% and the responders at 104 µmol/kg is 25%. Under setting [22], the responders at 26 µmol/kg was 100%, the responders at 52 µmol/kg was 75% and the responders at 104 µmol/kg is 50%. For the same compound, under setting [23], the responders at 26 µmol/kg was 50%, the responders at 52 µmol/kg turned out to be 0% and the responders at 104 µmol/kg is 50%. Further, under setting [24], the responders at 26 µmol/kg is 100%, the responders at 52 µmol/kg was 75% and the responders at 104 µmol/kg was 75%.
As to `CCCN1CCc2cccc3c2C1Cc1ccc(OC(=O)c2ccc(Cl)cc2)c(OC(=O)c2ccc(Cl)cc2)c1-3` (centres unmarked) [Ex. 1F, N-Propylnorapomorphine bis-4-chlorobenzoate], the “Molar Potency Ratio Claimed/Ref. Ester” value is given as ≥ 3. Moreover, the responders at 132 µmol/kg under setting [13] is 0%. Under setting [7], the responders at 208 µmol/kg was 33.3%. Besides, the responders at 132 µmol/kg under setting [14] is 25%. Besides, the responders at 132 µmol/kg under setting [15] was 0%. The responders at 132 µmol/kg under setting [16] is 25%. Besides, under setting [17], the responders at 132 µmol/kg was 0%. For the same compound, the responders at 132 µmol/kg under setting [18] is 25%. In addition, the responders at 208 µmol/kg under setting [8] came to 0%. Under setting [9], the responders at 208 µmol/kg is 66.7%. The responders at 208 µmol/kg under setting [10] was 100%. Besides, under setting [11], the responders at 208 µmol/kg was 33.3%. In addition, under setting [12], the responders at 208 µmol/kg is 100%.
